Reference: patent US9440952B2, “Compounds inhibiting leucine-rich repeat kinase enzyme activity” (Merck Sharp & Dohme Corp., priority 2013, dated 2016)

Legend:
Assay type in all cases: biochemical
[1] = target: T1, LRRK2(G2019S mutation, GST-LRRK2(amino acids 970-2527)) (Homo sapiens, UniProt Q5S007, G2019S); assay: LRRK2 Km ATP LanthaScreen Assay; conditions: read-out: LRRK2 IC50
T1 construct: GST-LRRK2(amino acids 970-2527); GST (N); purchased Life Technologies Corporation
In short: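 IC50 values are means of several runs in the Km-ATP LanthaScreen format, analysed by curve fitting of the LanthaScreen read-out.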

[2] = target: T1, LRRK2(G2019S mutation, GST-LRRK2(amino acids 970-2527)); assay: LRRK2 5 mM ATP LanthaScreen Assay; conditions: mean IC50 of several tests
Description: The data presented for the 5 mM and Km ATP LanthaScreen™ Assay represents mean IC50 values based on several test results and may have reasonable. deviations depending on the specific conditions and reagents used. Reagents for the LRRK2 5 mM and Km ATP LanthaScreen™ Assay were purchased from Life Technologies Corporation.
LRRK2 5 mM ATP LanthaScreen™ Assay • a) 400 nl of a 1:2.15 serial dilution of test compound (98 μM top assay concentration) is spotted via Labcyte Echo to certain wells in a 384 well black, untreated plate. […] Results are analysed using Assay Data Analyzer.

kinases (Table B) [3] = target: T2, kinases (Table B) (Homo sapiens, UniProt P15056, V600E); assay: Kinase selectivity, Z'-LYTE or Adapta assay platforms (Life Technologies); conditions: BRAF V599E, Z-LYTE, read-out: percent inhibition BRAF V599E; for inhibition at 1 µM: test conc 1 μM
T2 construct: purchased Life Technologies Corporation

kinases (Table B) [4] = target: T3, kinases (Table B) (Homo sapiens, UniProt Q13627); assay: as above; conditions: DYRK1A, Z-LYTE, read-out: percent inhibition DYRK1A; for inhibition at 1 µM: test conc 1 μM; for inhibition at 0.1 µM: test conc 0.100 μM
T3 construct: purchased Life Technologies Corporation

kinases (Table B) [5] = target: T4, kinases (Table B) (Homo sapiens, UniProt P28482); assay: as above; conditions: MAPK1 (ERK2), Z-LYTE, read-out: percent inhibition MAPK1 (ERK2); for inhibition at 1 µM: test conc 1 μM; for inhibition at 0.1 µM: test conc 0.100 μM
T4 construct: purchased Life Technologies Corporation

kinases (Table B) [6] = target: T5, kinases (Table B) (Homo sapiens, UniProt P45983); assay: as above; conditions: MAPK8 (JNK1), Z-LYTE, read-out: percent inhibition MAPK8 (JNK1); for inhibition at 1 µM: test conc 1 μM
T5 construct: purchased Life Technologies Corporation

kinases (Table B) [7] = target: T6, kinases (Table B) (Homo sapiens, UniProt Q96GD4); assay: as above; conditions: AURKB (Aurora B), Z-LYTE, read-out: percent inhibition AURKB (Aurora B); for inhibition at 1 µM: test conc 1 μM; for inhibition at 0.1 µM: test conc 0.100 μM
T6 construct: purchased Life Technologies Corporation

kinases (Table B) [8] = assay: as above; conditions: for percent inhibition CDK1/cyclin B / percent inhibition CLK2 / percent inhibition JAK3: Z-LYTE; for percent inhibition IRAK1: Adapta
kinases (Table B) [9] = target: T7, kinases (Table B) (Homo sapiens, UniProt O96017); assay: as above; conditions: CHEK2 (CHK2), Z-LYTE, read-out: percent inhibition CHEK2 (CHK2); for inhibition at 1 µM: test conc 1 μM
T7 construct: purchased Life Technologies Corporation

[10] = Km ATP LanthaScreen, mean IC50 of several tests
[11] = Km ATP LanthaScreen Assay, LRRK2 G2019S, mean IC50 values

T5 sequence (P45983 whole entry): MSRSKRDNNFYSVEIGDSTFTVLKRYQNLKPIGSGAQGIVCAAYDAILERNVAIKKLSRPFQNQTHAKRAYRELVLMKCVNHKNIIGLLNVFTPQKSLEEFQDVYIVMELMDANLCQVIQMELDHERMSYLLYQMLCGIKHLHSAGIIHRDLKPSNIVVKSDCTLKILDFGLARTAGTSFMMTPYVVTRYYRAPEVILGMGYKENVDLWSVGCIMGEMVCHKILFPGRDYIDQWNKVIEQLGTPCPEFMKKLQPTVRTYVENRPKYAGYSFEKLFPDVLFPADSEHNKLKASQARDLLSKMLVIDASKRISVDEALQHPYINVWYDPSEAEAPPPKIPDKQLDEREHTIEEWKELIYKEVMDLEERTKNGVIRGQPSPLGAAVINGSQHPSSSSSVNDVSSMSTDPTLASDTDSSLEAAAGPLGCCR
T4 sequence (P28482 whole entry): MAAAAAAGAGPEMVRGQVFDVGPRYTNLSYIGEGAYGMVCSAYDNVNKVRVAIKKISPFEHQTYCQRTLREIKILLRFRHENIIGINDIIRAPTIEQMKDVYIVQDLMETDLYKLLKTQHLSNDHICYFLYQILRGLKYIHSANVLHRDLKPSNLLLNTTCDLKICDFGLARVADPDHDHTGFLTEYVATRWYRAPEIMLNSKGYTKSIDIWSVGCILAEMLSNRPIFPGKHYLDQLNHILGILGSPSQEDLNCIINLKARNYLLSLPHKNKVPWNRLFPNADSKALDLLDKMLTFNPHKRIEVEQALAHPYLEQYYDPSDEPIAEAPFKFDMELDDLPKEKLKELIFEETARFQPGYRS
T6 sequence (Q96GD4 whole entry): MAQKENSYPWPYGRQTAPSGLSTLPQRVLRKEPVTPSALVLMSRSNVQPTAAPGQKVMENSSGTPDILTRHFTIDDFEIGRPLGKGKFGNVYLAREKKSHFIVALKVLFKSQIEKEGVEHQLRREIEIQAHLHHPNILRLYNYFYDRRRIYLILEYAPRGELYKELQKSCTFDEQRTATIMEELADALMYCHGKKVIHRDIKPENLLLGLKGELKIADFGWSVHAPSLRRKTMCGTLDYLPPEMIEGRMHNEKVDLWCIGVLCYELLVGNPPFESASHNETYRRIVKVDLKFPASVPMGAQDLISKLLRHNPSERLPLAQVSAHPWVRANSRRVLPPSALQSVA
T2 sequence (P15056 whole entry V600E): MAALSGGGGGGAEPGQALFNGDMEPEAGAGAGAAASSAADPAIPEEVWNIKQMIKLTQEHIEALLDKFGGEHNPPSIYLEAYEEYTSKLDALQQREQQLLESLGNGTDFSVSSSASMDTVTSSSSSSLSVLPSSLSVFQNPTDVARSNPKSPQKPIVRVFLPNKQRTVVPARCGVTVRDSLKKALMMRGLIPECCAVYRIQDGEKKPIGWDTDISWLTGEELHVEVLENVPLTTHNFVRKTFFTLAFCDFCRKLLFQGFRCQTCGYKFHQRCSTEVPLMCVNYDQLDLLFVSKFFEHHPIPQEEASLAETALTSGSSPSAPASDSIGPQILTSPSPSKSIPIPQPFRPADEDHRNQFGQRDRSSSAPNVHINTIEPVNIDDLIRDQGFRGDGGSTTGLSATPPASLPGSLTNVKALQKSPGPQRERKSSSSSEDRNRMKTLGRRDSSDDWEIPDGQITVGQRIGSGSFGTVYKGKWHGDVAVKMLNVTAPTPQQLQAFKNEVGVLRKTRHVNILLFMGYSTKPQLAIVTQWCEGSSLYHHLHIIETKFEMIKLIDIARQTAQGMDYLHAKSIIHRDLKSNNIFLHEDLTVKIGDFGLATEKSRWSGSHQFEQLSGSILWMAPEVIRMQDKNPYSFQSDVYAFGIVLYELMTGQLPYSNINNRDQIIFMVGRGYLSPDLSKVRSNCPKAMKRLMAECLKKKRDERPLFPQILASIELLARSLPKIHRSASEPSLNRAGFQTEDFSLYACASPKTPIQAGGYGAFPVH
T7 sequence (O96017 whole entry): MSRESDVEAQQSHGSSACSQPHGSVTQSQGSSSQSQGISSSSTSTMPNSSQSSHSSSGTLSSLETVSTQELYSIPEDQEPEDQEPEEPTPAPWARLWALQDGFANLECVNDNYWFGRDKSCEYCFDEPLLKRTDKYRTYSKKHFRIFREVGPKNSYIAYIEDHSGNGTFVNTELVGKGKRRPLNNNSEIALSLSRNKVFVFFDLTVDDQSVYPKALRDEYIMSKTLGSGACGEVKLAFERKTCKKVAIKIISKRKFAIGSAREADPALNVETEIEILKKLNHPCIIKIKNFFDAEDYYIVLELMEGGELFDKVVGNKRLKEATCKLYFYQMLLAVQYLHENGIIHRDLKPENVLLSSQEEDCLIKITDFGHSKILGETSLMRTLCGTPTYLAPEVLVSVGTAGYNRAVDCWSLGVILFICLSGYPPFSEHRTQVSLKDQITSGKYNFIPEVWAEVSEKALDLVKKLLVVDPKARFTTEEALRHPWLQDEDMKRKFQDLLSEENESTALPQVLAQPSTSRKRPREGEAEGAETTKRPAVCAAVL
T1 sequence (Q5S007 970-2527 G2019S): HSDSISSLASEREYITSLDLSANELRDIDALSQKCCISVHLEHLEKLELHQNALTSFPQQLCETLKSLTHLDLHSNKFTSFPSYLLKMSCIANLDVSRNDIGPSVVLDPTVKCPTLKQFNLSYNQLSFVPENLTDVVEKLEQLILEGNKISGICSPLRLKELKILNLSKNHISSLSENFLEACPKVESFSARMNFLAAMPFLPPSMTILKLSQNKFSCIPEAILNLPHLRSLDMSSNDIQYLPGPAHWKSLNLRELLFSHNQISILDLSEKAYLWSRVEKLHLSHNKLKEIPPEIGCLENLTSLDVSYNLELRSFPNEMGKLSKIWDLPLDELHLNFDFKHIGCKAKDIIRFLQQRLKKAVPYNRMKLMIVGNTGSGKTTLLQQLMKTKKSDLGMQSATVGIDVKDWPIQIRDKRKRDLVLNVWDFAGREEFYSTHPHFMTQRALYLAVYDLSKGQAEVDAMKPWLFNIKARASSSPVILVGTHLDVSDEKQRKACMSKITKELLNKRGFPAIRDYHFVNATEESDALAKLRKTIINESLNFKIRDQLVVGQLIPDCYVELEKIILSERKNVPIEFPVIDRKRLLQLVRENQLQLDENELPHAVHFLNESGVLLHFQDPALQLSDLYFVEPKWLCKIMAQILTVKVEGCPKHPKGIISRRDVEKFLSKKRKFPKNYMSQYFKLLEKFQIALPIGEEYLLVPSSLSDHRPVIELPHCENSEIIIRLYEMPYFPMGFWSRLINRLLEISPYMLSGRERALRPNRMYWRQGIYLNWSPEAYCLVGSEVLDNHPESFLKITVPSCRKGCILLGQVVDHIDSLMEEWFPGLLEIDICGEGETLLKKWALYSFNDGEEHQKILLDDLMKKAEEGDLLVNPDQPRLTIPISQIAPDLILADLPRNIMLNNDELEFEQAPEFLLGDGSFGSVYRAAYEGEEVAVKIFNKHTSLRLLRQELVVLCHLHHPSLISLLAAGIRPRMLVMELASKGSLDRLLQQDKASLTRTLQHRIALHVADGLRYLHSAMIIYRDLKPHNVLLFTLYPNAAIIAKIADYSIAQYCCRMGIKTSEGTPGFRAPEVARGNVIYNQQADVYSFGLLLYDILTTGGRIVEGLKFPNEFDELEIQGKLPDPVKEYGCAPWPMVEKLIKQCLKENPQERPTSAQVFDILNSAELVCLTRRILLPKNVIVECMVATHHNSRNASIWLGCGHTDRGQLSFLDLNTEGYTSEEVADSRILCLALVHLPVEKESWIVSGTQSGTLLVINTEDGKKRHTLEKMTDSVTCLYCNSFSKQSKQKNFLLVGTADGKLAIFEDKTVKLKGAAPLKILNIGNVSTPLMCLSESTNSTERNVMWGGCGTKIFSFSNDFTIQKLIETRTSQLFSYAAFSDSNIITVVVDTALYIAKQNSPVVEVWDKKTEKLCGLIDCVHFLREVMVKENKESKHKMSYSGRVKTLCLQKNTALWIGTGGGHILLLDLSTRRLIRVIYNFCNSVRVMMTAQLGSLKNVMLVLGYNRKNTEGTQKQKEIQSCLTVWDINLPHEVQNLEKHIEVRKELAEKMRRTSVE

## Cn1cc(-c2ccc3[nH]nc(-c4ccnc(N5CC(F)C5)c4)c3c2)cn1 [Ex 376]
[1]; [10]
  IC50: < 0.6 nM
[2]
  IC50: 23 nM

## Oc1cc(-c2ccc3[nH]nc(-c4ccnc(N5CCC(O)CC5)c4)c3c2)ccn1 [Example 121]
[1]; [11]
  IC50: 1.4 nM
[2]
  IC50: 16 nM

## CC(C)Oc1ccc2[nH]nc(-c3ccnc(N4CCC(O)CC4)c3)c2c1 [Example 285]
[1]; [10]
  IC50: 3.8 nM
[2]
  IC50: 15 nM

## CC(C)Oc1ccc2[nH]nc(-c3ccnc(N4CCN(S(C)(=O)=O)CC4)c3)c2c1 [Example 289]
Kinases (Table B) [3]
  inhibition at 1 µM: 64%
Kinases (Table B) [4]
  inhibition at 1 µM: 12%
Kinases (Table B) [5]
  inhibition at 1 µM: 55%
Kinases (Table B) [6]
  inhibition at 1 µM: 54%
Kinases (Table B) [7]
  inhibition at 1 µM: 23%
Kinases (Table B) [8]; test conc 1 μM
  percent inhibition CDK1/cyclin B: 18%
  percent inhibition CLK2: 49%
  percent inhibition IRAK1: 6%
  percent inhibition JAK3: 29%
Kinases (Table B) [9]
  inhibition at 1 µM: 26%
[1]; [10]
  IC50: 2.7 nM
[2]
  IC50: 16 nM

## CC(C)Oc1ccc2[nH]nc(-c3ccnc(N4CCNC(=O)C4)c3)c2c1 [Example 311]
[1]; [10]
  IC50: < 0.6 nM
[2]
  IC50: 14 nM

## Cc1c(-c2ccc3[nH]nc(-c4ccnc(N5CCOCC5)c4)c3c2)cnn1C [Example 316]
[1]; [10]
  IC50: 2.1 nM
[2]
  IC50: 8 nM

## Cn1cc(-c2ccc3[nH]nc(-c4ccnc(N5CCOCC5)c4)c3c2)cn1 [Example 321]
[1]; [10]
  IC50: < 0.6 nM
[2]
  IC50: 12 nM

## Cn1cc(-c2ccc3[nH]nc(-c4ccnc(N5CCN(S(C)(=O)=O)CC5)c4)c3c2)cn1 [Example 381]
Kinases (Table B) [3]; test conc 0.100 μM
  inhibition at 0.1 µM: 11%
Kinases (Table B) [4]
  inhibition at 0.1 µM: 78%
Kinases (Table B) [5]
  inhibition at 0.1 µM: 11%
Kinases (Table B) [6]; test conc 0.100 μM
  inhibition at 0.1 µM: 25%
Kinases (Table B) [7]
  inhibition at 0.1 µM: 13%
Kinases (Table B) [8]; test conc 0.100 μM
  percent inhibition CDK1/cyclin B: 26%
  percent inhibition CLK2: 91%
  percent inhibition IRAK1: 20%
  percent inhibition JAK3: 4%
Kinases (Table B) [9]; test conc 0.100 μM
  inhibition at 0.1 µM: 19%
[1]; [10]
  IC50: 1.9 nM
[2]
  IC50: 24 nM

## CC(C)Oc1ccc2[nH]nc(-c3ccnc(N4CCN(C)CC4)c3)c2c1 [Example 383]
Kinases (Table B) [4]
  inhibition at 0.1 µM: 8%
Kinases (Table B) [5]
  inhibition at 0.1 µM: 10%
Kinases (Table B) [7]
  inhibition at 0.1 µM: 8%
Kinases (Table B) [8]; test conc 0.100 μM
  percent inhibition CDK1/cyclin B: 5%
  percent inhibition CLK2: 26%
  percent inhibition IRAK1: 2%
  percent inhibition JAK3: 7%
[1]; [10]
  IC50: 0.75 nM
[2]
  IC50: 22 nM

## c1cc(-c2ccc3[nH]nc(-c4ccnc(N5CCOCC5)c4)c3c2)cc(N2CCOCC2)n1 [Example 399]
[1]; [10]
  IC50: 74 nM

## CC(C)Oc1ccc2[nH]nc(-c3ccnc(N4CCOCC4)c3)c2c1 [Example 400]
Kinases (Table B) [3]
  inhibition at 1 µM: 51%
Kinases (Table B) [4]
  inhibition at 1 µM: 9%
Kinases (Table B) [5]
  inhibition at 1 µM: 41%
Kinases (Table B) [6]
  inhibition at 1 µM: 72%
Kinases (Table B) [7]
  inhibition at 1 µM: 9%
Kinases (Table B) [8]; test conc 1 μM
  percent inhibition CDK1/cyclin B: 29%
  percent inhibition CLK2: 47%
  percent inhibition IRAK1: 11%
  percent inhibition JAK3: 49%
Kinases (Table B) [9]
  inhibition at 1 µM: 16%
[1]; [10]
  IC50: 1.9 nM
[2]
  IC50: 14 nM

## [2H]C1([2H])OC([2H])([2H])C([2H])([2H])N(c2cc(-c3n[nH]c4ccccc34)ccn2)C1([2H])[2H] [Example 401]
[1]; [11]
  IC50: 27 nM

## c1ccc2c(-c3ccnc(N4CC5CCC(C4)O5)c3)n[nH]c2c1 [Example 402]
[1]; [11]
  IC50: 27 nM
